Test results: patent US12180434B2, “Spiro compounds as malodor counteracting ingredients” (Firmenich SA, priority 2017, dated 2024)
Where a name gives a salt, the structure may show the parent alone. Read-outs that look alike come from different tables or passages of the source.

Molecular target: T1, OR51E1 olfactory receptor (Homo sapiens, UniProt Q8TCB6)
T1 construct: expressed in transfected cells
T1 sequence (Q8TCB6 1-318): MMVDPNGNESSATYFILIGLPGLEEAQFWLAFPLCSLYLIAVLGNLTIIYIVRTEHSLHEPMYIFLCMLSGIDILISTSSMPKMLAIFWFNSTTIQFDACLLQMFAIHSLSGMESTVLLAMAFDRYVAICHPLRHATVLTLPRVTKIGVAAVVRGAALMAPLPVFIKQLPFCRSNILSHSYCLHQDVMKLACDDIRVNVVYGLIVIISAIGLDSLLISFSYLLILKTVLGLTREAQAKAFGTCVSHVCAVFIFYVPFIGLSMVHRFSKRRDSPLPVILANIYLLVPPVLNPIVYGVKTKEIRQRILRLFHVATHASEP
Assay: Inhibitory dose-response assay in a cell line expressing the butyric acid olfactory receptor OR51E1
Assay type: cell-based

[1] = highly stringent screening conditions, cells treated with 67 μM butyric acid (EC94), read-out: calculated IC50, inhibitor of the butyric acid olfactory receptor OR51E1

| IC50 [1] [µM] | IC50 (table, butyric acid at EC80, EC87, EC90, or EC100, read-out: IC50) [µM] | SMILES |
| --- | --- | --- |
| 45.2 | – | CC(=O)O[C@@H]1C(C)(C)CCC[C@]12CC=C(C)C[C@H]2C (racemic) [Compound 1, (1RS,6RS,11RS)-2,2,9,11-tetramethylspiro[5.5]undec-8-en-1-yl acetate] |
| 68.6 | 170 | CC(=O)O[C@H]([C@H]1CCCC[C@@H]1C)C(C)(C)C (racemic) [Compound 14, (1RS)-2,2-dimethyl-1-[(1SR,2SR)-2-methylcyclohexyl]propyl acetate] |
| 18.6 | – | CC(=O)OC1C(C)(C)CCCC12CC(C)=C(C)C2 (centres unmarked) [Compound 2, (2,3,9,9-tetramethylspiro[4.5]dec-2-en-10-yl) acetate] |
| 4.74 | – | CC(=O)OC1C(C)(C)CCCC12C(C)C=CCC2C (centres unmarked) [Compound 3, (1,5,10,10-tetramethylspiro[5.5]undec-3-en-11-yl) acetate] |
| 46.9 | – | CC1CC=CCC12CCCC(C)(C)C2OC=O (centres unmarked) [Compound 5, (5,10,10-trimethylspiro[5.5]undec-2-en-11-yl) formate] |
| 78.1 | – | CC(=O)OC1C(C)(C)CCCC12CC=C(C)CC2C (centres unmarked) [Compound 6, (3,5,10,10-tetramethylspiro[5.5]undec-2-en-11-yl) acetate] |
| 84.3 | – | CC(=O)OC1C(C)(C)CCCC12CC=CC2 (centres unmarked) [Compound 7, (9,9-dimethylspiro[4.5]dec-2-en-10-yl) acetate] |
| 193 | – | COC1C(C)(C)CCCC12CC=CC2 (centres unmarked) [Compound 8, 10-methoxy-9,9-dimethylspiro[4.5]dec-2-ene] |
| 805 | – | CC1CCCCC12CCCCC2O (centres unmarked) [Compound 12, 11-methylspiro[5.5]undecan-5-ol] |
| 43.4 | – | CC(=O)OC(C1C(C)C=C(C)CC1C)C(C)(C)C (centres unmarked) [Compound 17, [2,2-dimethyl-1-(2,4,6-trimethylcyclohex-3-en-1-yl)propyl]acetate] |
